According to patent US7601686B2, “Hepatitis C virus inhibitors” (Bristol-Myers Squibb Company, priority 2005, dated 2009):
Where two headings read alike, the source gives them in different places.

What was measured:
[1] = molecular target: T1, HCV NS3/4A protease complex, BMS strain (UniProt P27958, species not given/STRAIN_BMS); assay: FRET peptide assay to monitor HCV NS3/4A proteolytic activity (BMS strain); type: biochemical, Hepatitis C virus (genotype 1a)
T1 construct: DNA encoding the recombinant HCV NS3/4A protease complex (amino acids 1027 to 1711) for these strains [H77 and J4L6S]; fused on or other part: For the H77 and J4L6S constructs, a three-lysine solubilising tail at the NS4A C-terminus and a Ni-NTA-purifiable tag from pET21b
T1 sequence (P27958 1027-1657, stated change not applied, one chain of several): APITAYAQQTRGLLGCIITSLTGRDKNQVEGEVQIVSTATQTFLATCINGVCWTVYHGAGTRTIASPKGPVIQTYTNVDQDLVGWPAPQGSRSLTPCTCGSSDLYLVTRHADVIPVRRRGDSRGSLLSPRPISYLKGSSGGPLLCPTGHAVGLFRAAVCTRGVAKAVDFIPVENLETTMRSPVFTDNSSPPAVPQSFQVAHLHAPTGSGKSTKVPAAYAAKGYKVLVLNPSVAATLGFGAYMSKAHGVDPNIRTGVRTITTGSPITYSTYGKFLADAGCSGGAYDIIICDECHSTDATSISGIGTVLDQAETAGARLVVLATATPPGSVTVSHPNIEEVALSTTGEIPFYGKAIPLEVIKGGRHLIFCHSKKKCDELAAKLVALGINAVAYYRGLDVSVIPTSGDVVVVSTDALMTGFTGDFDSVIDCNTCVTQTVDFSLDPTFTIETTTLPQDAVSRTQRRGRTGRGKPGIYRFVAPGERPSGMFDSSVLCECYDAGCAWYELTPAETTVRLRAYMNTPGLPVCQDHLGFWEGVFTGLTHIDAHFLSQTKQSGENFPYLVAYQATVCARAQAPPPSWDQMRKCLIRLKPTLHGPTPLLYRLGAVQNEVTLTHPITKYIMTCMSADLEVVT
Description: Generation of Recombinant HCV NS3/4A Protease Complex
HCV NS3 protease complexes, derived from the BMS strain, H77 strain or J4L6S strain, were generated, as described below. These purified recombinant proteins were generated for use in a homogeneous assay (see below) to provide an indication of how effective compounds of the present disclosure would be in inhibiting HCV NS3 proteolytic activity.
Serum from an HCV-infected patient was obtained from Dr. T. Wright, San Francisco Hospital. An engineered full-length cDNA (compliment deoxyribonucleic acid) template of the HCV genome (BMS strain) was constructed from DNA fragments obtained by reverse transcription-PCR (RT-PCR) of serum RNA (ribonucleic acid) and using primers selected on the basis of homology between other genotype 1a strains. From the determination of the entire genome sequence, a genotype 1a was assigned to the HCV isolate according to the classification of Simmonds et al. (See P Simmonds, K A Rose, S Graham, S W Chan, F McOmish, B C Dow, E A Follett, P L Yap and H Marsden, J. Clin. Microbiol., 31(6), 1493-1503 (1993)). […] The infectious clones, H77 (1a genotype) and J4L6S (1b genotype) were obtained from R. Purcell (NIH) and the sequences are published in Genbank (AAB67036, see Yanagi, M., Purcell, R. H., Emerson, S. U. and Bukh, J. Proc. Natl. Acad. Sci. U.S.A. 94(16), 8738-8743 (1997); AF054247, see Yanagi, M., St Claire, M., Shapiro, M., Emerson, S. U., Purcell, R. H. and Bukh, J, Virology 244 (1), 161-172. (1998)).
The H77 and J4L6S strains were used for production of recombinant NS3/4A protease complexes. DNA encoding the recombinant HCV NS3/4A protease complex (amino acids 1027 to 1711) for these strains were manipulated as described by P. Gallinari et al. (see Gallinari P, Paolini C, Brennan D, Nardi C, Steinkuhler C, De Francesco R. Biochemistry. 38(17):5620-32, (1999)). Briefly, a three-lysine solubilizing tail was added at the 3′-end of the NS4A coding region. The cysteine in the P1 position of the NS4A-NS4B cleavage site (amino acid 1711) was changed to a glycine to avoid the proteolytic cleavage of the lysine tag. Furthermore, a cysteine to serine mutation was introduced by PCR at amino acid position 1454 to prevent the autolytic cleavage in the NS3 helicase domain. The variant DNA fragment was cloned in the pET21b bacterial expression vector (Novagen) and the NS3/4A complex was expressed in Escherichia coli strain BL21 (DE3) (Invitrogen) following the protocol described by P. Gallinari et al. (see Gallinari P, Brennan D, Nardi C, Brunetti M, Tomei L, Steinkuhler C, De Francesco R., J. Virol. 72(8):6758-69 (1998)) with modifications. Briefly, the NS3/4A protease complex expression was induced with 0.5 millimolar (mM) Isopropyl β-D-1-thiogalactopyranoside (IPTG) for 22 hours (h) at 20° C. A typical fermentation (1 Liter (L)) yielded approximately 10 grams (g) of wet cell paste. The cells were resuspended in lysis buffer (10 mL/g) consisting of 25 mM N-(2-Hydroxyethyl)piperazine-N′-(2-Ethane Sulfonic acid) (HEPES), pH 7.5, 20% glycerol, 500 mM Sodium Chloride (NaCl), 0.5% Triton X-100, 1 microgram/milliliter (“μg/mL”) lysozyme, 5 mM Magnesium Chloride (MgCl2), 1 μg/mL DnaseI, 5 mM β-Mercaptoethanol (βME), Protease inhibitor—Ethylenediamine Tetraacetic acid (EDTA) free (Roche), homogenized and incubated for 20 minutes (min) at 4° C. The homogenate was sonicated and clarified by ultra-centrifugation at 235000 g for 1 h at 4° C. Imidazole was added to the supernatant to a final concentration of 15 mM and the pH adjusted to 8.0. The crude protein extract was loaded on a Nickel—Nitrilotriacetic acid (Ni-NTA) column pre-equilibrated with buffer B (25 mM HEPES, pH 8.0, 20% glycerol, 500 mM NaCl, 0.5% Triton X-100, 15 mM imidazole, 5 mM βME). The sample was loaded at a flow rate of 1 mL/min. The column was washed with 15 column volumes of buffer C (same as buffer B except with 0.2% Triton X-100). […]

[2] = test system: HCV replicon in HUH-7 cells; assay: HCV replicon FRET assay; type: cell-based, Hepatitis C virus (strain 1b); details: HCV replicon cell assay, HUH-7, read-out: EC50 Range
Description: Generation of HCV Replicon
An HCV replicon whole cell system was established as described by Lohmann V, Korner F, Koch J, Herian U, Theilmann L, Bartenschlager R., Science 285(5424):110-3 (1999). This system enabled us to evaluate the effects of our HCV Protease compounds on HCV RNA replication. Briefly, using the HCV strain 1b sequence described in the Lohmann paper (Assession number:AJ238799), an HCV cDNA was synthesized by Operon Technologies, Inc. (Alameda, Calif.), and the full-length replicon was then assembled in plasmid pGem9zf(+) (Promega, Madison, Wis.) using standard molecular biology techniques. The replicon consists of (i) the HCV 5′ UTR fused to the first 12 amino acids of the capsid protein, (ii) the neomycin phosphotransferase gene (neo), (iii) the IRES from encephalomyocarditis virus (EMCV), and (iv) HCV NS3 to NS5B genes and the HCV 3′ UTR. Plasmid DNAs were linearized with ScaI and RNA transcripts were synthesized in vitro using the T7 MegaScript transcription kit (Ambion, Austin, Tex.) according to manufacturer's directions. In vitro transcripts of the cDNA were transfected into the human hepatoma cell line, HUH-7. […] Resulting cell lines were characterized for positive and negative strand RNA production and protein production over time.
The HCV replicon FRET assay was developed to monitor the inhibitory effects of compounds described in the disclosure on HCV viral replication. HUH-7 cells, constitutively expressing the HCV replicon, were grown in Dulbecco's Modified Eagle Media (DMEM) (Gibco-BRL) containing 10% Fetal calf serum (FCS) (Sigma) and 1 mg/mL G418 (Gibco-BRL). Cells were seeded the night before (1.5×10^4 cells/well) in 96-well tissue-culture sterile plates. Compound and no compound controls were prepared in DMEM containing 4% FCS, 1:100 Penicillin/Streptomysin (Gibco-BRL), 1:100 L-glutamine and 5% DMSO in the dilution plate (0.5% DMSO final concentration in the assay). Compound/DMSO mixes were added to the cells and incubated for 4 days at 37° C. After 4 days, cells were first assessed for cytotoxicity using alamar Blue (Trek Diagnotstic Systems) for a CC50 reading. The toxicity of compound (CC50) was determined by adding 1/10th volume of alamar Blue to the media incubating the cells. After 4 h, the fluorescence signal from each well was read, with an excitation wavelength at 530 nm and an emission wavelength of 580 nm, using the Cytofluor Series 4000 (Perspective Biosystems). Plates were then rinsed thoroughly with Phosphate-Buffered Saline (PBS) (3 times 150 μl).

[3] = NS3/4A BMS strain, enzyme assay; read-out: IC 50 Range
[4] = read-out: IC 50 Range; NS3/4A BMS strain, enzyme assay

| Compound | IC50 [1, 3] [µM] | EC50 ([2]; Hepatitis C virus) [µM] | EC50 [2] [µM] | IC50 [1, 4] [µM] |
| --- | --- | --- | --- | --- |
| C=CC1CC1(NC(=O)[C@@H]1C[C@@H](NC(=O)c2c(OCC)ccc3ccccc23)CN1C(=O)[C@@H](NC(=O)CC1CC1)C(C)(C)C)C(=O)NS(=O)(=O)C1CC1 (stereo partly drawn) [Compound 37] | 0.15 to 15 | > 15 |  |  |
| C=CC1CC1(NC(=O)[C@@H]1C[C@@H](NC(=O)c2c(C)nc3ccccn23)CN1C(=O)[C@@H](NC(=O)CC1CC1)C(C)(C)C)C(=O)NS(=O)(=O)C1CC1 (stereo partly drawn) [Compound 18] | 0.15 to 15 |  | > 15 |  |
| C=CC1CC1(NC(=O)[C@@H]1C[C@@H](NC(=O)c2cnc3c(c(C)nn3C)c2Cl)CN1C(=O)[C@@H](NC(=O)CC1CC1)C(C)(C)C)C(=O)NS(=O)(=O)C1CC1 (stereo partly drawn) [Compound 22] | < 0.15 | > 15 |  |  |
| C=CC1CC1(NC(=O)C1CC(NC(=O)c2cccc[n+]2[O-])CN1C(=O)C(NC(=O)CC1CC1)C(C)(C)C)C(=O)NS(=O)(=O)C1CC1 (stereo not drawn) [Compound 33] |  | > 15 |  | 0.15 to 15 |
| C=CC1CC1(NC(=O)[C@@H]1C[C@@H](NC(=O)c2cn(CC)c3cc4c(cc3c2=O)OCO4)CN1C(=O)[C@@H](NC(=O)CC1CC1)C(C)(C)C)C(=O)NS(=O)(=O)C1CC1 (stereo partly drawn) [Compound 40] |  | > 15 |  | < 0.15 |
| C=CC1CC1(NC(=O)[C@@H]1C[C@@H](N2C(=O)c3ccccc3C2=O)CN1C(=O)[C@@H](NC(=O)CC1CC1)C(C)(C)C)C(=O)NS(=O)(=O)C1CC1 (stereo partly drawn) [Compound 58] |  | > 15 |  | 0.15 to 15 |
| C=CC1CC1(NC(=O)C1CC(NC(=O)c2ccc3ccccc3[n+]2[O-])CN1C(=O)C(NC(=O)CC1CC1)C(C)(C)C)C(=O)NS(=O)(=O)C1CC1 (stereo not drawn) [Compound 34] |  | 0.15 to 15 |  | < 0.15 |
| C=CC1CC1(NC(=O)[C@@H]1C[C@@H](NC(=O)c2cc3ccccc3cn2)CN1C(=O)[C@@H](NC(=O)CC1CC1)C(C)(C)C)C(=O)NS(=O)(=O)C1CC1 (stereo partly drawn) [Compound 28] | < 0.15 | 0.15 to 15 |  |  |
| C=CC1CC1(NC(=O)[C@@H]1C[C@@H](NC(=O)Nc2cccc3ccccc23)CN1C(=O)[C@@H](NC(=O)OC(C)(C)C)C(C)(C)C)C(=O)NS(=O)(=O)C1CC1 (stereo partly drawn) [Compound 43] |  | > 15 |  | < 0.15 |
| C=CC1CC1(NC(=O)[C@@H]1C[C@@H](NC(=O)c2ccsc2)CN1C(=O)[C@@H](NC(=O)CC1CC1)C(C)(C)C)C(=O)NS(=O)(=O)C1CC1 (stereo partly drawn) [Compound 12] | 0.15 to 15 | > 15 |  |  |
| C=CC1CC1(NC(=O)[C@@H]1C[C@@H](NC(=O)c2cc3ccccc3s2)CN1C(=O)[C@@H](NC(=O)CC1CC1)C(C)(C)C)C(=O)NS(=O)(=O)C1CC1 (stereo partly drawn) [Compound 32] | < 0.15 | 0.15 to 15 |  |  |
| C=CC1CC1(NC(=O)[C@@H]1C[C@@H](NC(=O)c2sc3ccccc3c2Cl)CN1C(=O)[C@@H](NC(=O)CC1CC1)C(C)(C)C)C(=O)NS(=O)(=O)C1CC1 (stereo partly drawn) [Compound 29] | < 0.15 | 0.15 to 15 |  |  |
| C=CC1CC1(NC(=O)[C@@H]1C[C@@H](NC(=O)c2cccc3ccccc23)CN1C(=O)[C@@H](NC(=O)CC1CC1)C(C)(C)C)C(=O)NS(=O)(=O)C1CC1 (stereo partly drawn) [Compound 16] | < 0.15 | > 15 |  |  |
| C=CC1CC1(NC(=O)[C@@H]1C[C@@H](NCc2ccnc3ccccc23)CN1C(=O)[C@@H](NC(=O)OC(C)(C)C)C(C)(C)C)C(=O)NS(=O)(=O)C1CC1 (stereo partly drawn) [Compound 47] | < 0.15 | > 15 |  |  |
| C=CC1CC1(NC(=O)[C@@H]1C[C@@H](NC(=O)c2sc3ccccc3c2Cl)CN1C(=O)[C@@H](NC(=O)CC1CC1)C(C)(C)C)C(=O)NS(=O)(=O)C1CC1 (single isomer, unassigned) [Compound 3] | < 0.15 | 0.15 to 15 |  |  |
